Laboratory results published in publication PMC7044277 (Nature Communications, 2020).
Values joined by “and” are separate entries in the source; they are usually repeats but may differ in a detail not shown here. Equal entries are not always repeated.

What was measured:
Format in all cases: cell-based
320 non-olfactory GPCRs [1] = biological target: T1, 320 non-olfactory GPCRs (Homo sapiens, UniProt P04201); conditions: receptor MAS1; replicate values, Fig_4g
T1 construct: expressed in transfected cells; host or cells: HTLA cells
T1 sequence (P04201 whole entry): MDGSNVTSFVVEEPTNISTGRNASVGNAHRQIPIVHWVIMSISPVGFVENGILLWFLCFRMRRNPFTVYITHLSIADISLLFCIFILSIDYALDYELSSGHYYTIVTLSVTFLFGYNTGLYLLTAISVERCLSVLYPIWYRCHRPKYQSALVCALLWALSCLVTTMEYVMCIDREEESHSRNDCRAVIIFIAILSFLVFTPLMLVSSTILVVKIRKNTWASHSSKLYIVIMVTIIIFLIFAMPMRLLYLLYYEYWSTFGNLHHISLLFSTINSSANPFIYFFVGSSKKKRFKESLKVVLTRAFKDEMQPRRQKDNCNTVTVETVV

320 non-olfactory GPCRs [2] = biological target: 320 non-olfactory GPCRs (Homo sapiens, UniProt P30989); conditions: receptor NTSR1; replicate values, Fig_4g
Chain of 320 non-olfactory GPCRs (Homo sapiens, UniProt P30989) (P30989 whole entry): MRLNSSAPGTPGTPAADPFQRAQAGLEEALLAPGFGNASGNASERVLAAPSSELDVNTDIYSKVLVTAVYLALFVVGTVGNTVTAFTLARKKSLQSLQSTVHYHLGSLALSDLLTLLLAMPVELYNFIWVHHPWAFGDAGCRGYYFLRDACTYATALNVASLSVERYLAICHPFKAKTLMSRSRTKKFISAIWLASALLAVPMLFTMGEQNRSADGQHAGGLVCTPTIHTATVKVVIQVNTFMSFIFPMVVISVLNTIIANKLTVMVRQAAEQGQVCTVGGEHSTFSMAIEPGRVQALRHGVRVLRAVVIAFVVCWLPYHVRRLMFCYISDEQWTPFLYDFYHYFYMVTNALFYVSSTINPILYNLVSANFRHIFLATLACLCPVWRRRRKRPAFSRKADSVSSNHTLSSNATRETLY

320 non-olfactory GPCRs [3] = biological target: T2, 320 non-olfactory GPCRs (Homo sapiens, UniProt P43088); conditions: receptor PTGFR; replicate values, Fig_4g
T2 construct: expressed in transfected cells; host or cells: HTLA cells
T2 sequence (P43088 whole entry): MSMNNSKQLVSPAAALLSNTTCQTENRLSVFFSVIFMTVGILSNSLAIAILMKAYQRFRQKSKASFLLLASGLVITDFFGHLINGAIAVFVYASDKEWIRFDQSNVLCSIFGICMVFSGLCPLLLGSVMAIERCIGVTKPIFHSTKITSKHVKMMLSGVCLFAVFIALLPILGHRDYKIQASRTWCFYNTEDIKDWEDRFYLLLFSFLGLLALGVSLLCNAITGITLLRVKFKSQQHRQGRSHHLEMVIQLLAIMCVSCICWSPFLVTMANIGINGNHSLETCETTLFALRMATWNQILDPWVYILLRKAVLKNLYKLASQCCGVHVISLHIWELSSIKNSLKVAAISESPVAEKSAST

320 non-olfactory GPCRs [4] = biological target: T3, 320 non-olfactory GPCRs (Homo sapiens, UniProt Q8TDS7); conditions: receptor MRGPRD; replicate values, Fig_4g
T3 construct: expressed in transfected cells; host or cells: HTLA cells
T3 sequence (Q8TDS7 whole entry): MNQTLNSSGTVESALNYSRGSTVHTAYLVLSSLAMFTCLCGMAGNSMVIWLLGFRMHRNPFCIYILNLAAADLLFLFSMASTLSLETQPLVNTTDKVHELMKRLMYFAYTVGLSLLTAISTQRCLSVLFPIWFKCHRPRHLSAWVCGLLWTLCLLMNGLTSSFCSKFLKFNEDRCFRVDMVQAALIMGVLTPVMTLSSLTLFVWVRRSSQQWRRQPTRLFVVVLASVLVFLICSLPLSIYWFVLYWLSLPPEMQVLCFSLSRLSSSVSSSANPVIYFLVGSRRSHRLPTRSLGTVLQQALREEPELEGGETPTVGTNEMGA
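Further: fold over basal response of each receptor without drug.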

CCOc1cccc2cc(C(C)NCC3(O)CCCCC3)oc12 (stereo not shown) [O4LE6]
GPCRome agonism screen response (320 non-olfactory GPCRs [1]): 0.7017 and 0.6641 and 0.72 | GPCRome agonism screen response (320 non-olfactory GPCRs [2]): 0.7939 and 0.7425 and 1.49 and 2.039 | GPCRome agonism screen response (320 non-olfactory GPCRs [3]): 0.453 and 1.129 and 0.3537 and 0.6778 | GPCRome agonism screen response (320 non-olfactory GPCRs [4]): 1.227 and 0.5077 and 1.775 and 0.8477
